Reference: patent US20240276978A1, “Method for Dispersing Live Predatory Mites of the Phytoseiulus Genus Which Are Used in Biocontrol” (Bioline Agrosciences France, priority 2020, published 2024)

Experiments:
[1] = Thickening agent solution equivalent to the standard; type: physicochemical; conditions: at concentration tested (g/L): alginate 10, modified corn starch 34, amylopectin 67, carrageenans 3, chitosan 100, dextrin 46, guar 2, xanthan 2, glycerol 860, konjac 4, Carbomer 940 4, Gel Maker EMU 4.4, PVP 60, carboxymethylcellulose 30, hydroxypropylcellulose 30, calcium chloride 280, potassium chloride 280, potassium sulfate 140
Phytoseiulus persimilis = experiment: "Toxicity" of thickening agent to persimilis at 12 hours; type: in vivo; conditions: concentration tested (g/L): alginate 10, modified corn starch 34, carrageenans 3, guar 2, xanthan 2, glycerol 860, konjac 4, Carbomer 940 4, Gel Maker EMU 4.4, PVP 60, carboxymethylcellulose 30
Method: “Non-toxic” means less than 20% of biocontrol agents dead at the end of 12 hours.
A little solution containing the persimilis is kept in order to evaluate any possible “toxicity” at 12 hours.

SMILES | Equivalent to the standard [1] | “Toxicity” (Phytoseiulus persimilis)
[Ca+2].[Cl-].[Cl-] [Calcium chloride] | No | –
[Cl-].[K+] [Potassium chloride] | No | –
O=S(=O)([O-])[O-].[K+].[K+] [Potassium sulfate] | no | –
OCC(O)CO [Glycerol] | Yes | Yes
